Each structure is given as a SMILES string.

The test system of assay [1] is MR4. Put plainly: Concentration required for inhibiting the growth of MR4 cells; 0.05-0.1. The class given is functional, Mus musculus.
For another assay, the target named is Protein kinase C (PKC). Put plainly: Inhibition of protein kinase C. The class given is protein assay, Rattus norvegicus.
The test system of assay [2] is HT-29. Put plainly: Concentration required for inhibiting the growth of HT-29 cells; 0.05-0.1. The class given is functional, Homo sapiens.
For assay [3], the system named is MR4. The assay is described as follows: Concentration required for inhibiting the growth of MR4 cells; 0.1-1.0. Format: functional, Mus musculus.
Assay [4] has as its system HT-29. Put plainly: Concentration required for inhibiting the growth of HT-29 cells; 0.1-1.0. The class given is functional, Homo sapiens.

As to `CCCCCCCC(=O)OCC(COC(C)=O)OC(=O)CCCCCCC` (configuration not stated), in the assay with MR4 [1], the I80 is reported as 0.05 mM. This compound had an I50 on Protein kinase C (PKC) of 0.01 mM.

With `CCCCCCCC(=O)OCC(CO)OC(=O)CCCCCCC` (configuration not stated) [MONOCTANOIN COMPONENT C], the I80 in the assay on MR4 [1] and with HT-29 [2] was 0.05 mM each time.

As to `CCCCCCCC(=O)OCC(COC)OC(=O)CCCCCCC` (configuration not stated), the I80 in the assay on MR4 [3] and in the assay on HT-29 [4] was 0.1 mM each time. For the same compound, the I50 at Protein kinase C (PKC) worked out at 0.1 mM.

The values are drawn from ChEMBL document CHEMBL1151539, “The synthesis and evaluation of diacylglycerol analogues as potential second-messenger antagonists” (Bioorg Med Chem Lett, 1992).
